Experimental data as given in paper PMC11864979, “First-in-class ultralong-target-residence-time p38α inhibitors as a mitosis-targeted therapy for colorectal cancer” (Nature Cancer, 2025).
Where two headings read alike, the source gives them in different places.

Legend:
Assay in all cases: selectivity profiling in a panel of 340 wild-type kinases (Reaction Biology Europe)
Format in all cases: binding
340 wild-type kinases [1] = biological target: T1, 340 wild-type kinases (Homo sapiens, UniProt Q5S007)
T1 construct: purchased Reaction Biology Europe
T1 sequence (Q5S007 whole entry): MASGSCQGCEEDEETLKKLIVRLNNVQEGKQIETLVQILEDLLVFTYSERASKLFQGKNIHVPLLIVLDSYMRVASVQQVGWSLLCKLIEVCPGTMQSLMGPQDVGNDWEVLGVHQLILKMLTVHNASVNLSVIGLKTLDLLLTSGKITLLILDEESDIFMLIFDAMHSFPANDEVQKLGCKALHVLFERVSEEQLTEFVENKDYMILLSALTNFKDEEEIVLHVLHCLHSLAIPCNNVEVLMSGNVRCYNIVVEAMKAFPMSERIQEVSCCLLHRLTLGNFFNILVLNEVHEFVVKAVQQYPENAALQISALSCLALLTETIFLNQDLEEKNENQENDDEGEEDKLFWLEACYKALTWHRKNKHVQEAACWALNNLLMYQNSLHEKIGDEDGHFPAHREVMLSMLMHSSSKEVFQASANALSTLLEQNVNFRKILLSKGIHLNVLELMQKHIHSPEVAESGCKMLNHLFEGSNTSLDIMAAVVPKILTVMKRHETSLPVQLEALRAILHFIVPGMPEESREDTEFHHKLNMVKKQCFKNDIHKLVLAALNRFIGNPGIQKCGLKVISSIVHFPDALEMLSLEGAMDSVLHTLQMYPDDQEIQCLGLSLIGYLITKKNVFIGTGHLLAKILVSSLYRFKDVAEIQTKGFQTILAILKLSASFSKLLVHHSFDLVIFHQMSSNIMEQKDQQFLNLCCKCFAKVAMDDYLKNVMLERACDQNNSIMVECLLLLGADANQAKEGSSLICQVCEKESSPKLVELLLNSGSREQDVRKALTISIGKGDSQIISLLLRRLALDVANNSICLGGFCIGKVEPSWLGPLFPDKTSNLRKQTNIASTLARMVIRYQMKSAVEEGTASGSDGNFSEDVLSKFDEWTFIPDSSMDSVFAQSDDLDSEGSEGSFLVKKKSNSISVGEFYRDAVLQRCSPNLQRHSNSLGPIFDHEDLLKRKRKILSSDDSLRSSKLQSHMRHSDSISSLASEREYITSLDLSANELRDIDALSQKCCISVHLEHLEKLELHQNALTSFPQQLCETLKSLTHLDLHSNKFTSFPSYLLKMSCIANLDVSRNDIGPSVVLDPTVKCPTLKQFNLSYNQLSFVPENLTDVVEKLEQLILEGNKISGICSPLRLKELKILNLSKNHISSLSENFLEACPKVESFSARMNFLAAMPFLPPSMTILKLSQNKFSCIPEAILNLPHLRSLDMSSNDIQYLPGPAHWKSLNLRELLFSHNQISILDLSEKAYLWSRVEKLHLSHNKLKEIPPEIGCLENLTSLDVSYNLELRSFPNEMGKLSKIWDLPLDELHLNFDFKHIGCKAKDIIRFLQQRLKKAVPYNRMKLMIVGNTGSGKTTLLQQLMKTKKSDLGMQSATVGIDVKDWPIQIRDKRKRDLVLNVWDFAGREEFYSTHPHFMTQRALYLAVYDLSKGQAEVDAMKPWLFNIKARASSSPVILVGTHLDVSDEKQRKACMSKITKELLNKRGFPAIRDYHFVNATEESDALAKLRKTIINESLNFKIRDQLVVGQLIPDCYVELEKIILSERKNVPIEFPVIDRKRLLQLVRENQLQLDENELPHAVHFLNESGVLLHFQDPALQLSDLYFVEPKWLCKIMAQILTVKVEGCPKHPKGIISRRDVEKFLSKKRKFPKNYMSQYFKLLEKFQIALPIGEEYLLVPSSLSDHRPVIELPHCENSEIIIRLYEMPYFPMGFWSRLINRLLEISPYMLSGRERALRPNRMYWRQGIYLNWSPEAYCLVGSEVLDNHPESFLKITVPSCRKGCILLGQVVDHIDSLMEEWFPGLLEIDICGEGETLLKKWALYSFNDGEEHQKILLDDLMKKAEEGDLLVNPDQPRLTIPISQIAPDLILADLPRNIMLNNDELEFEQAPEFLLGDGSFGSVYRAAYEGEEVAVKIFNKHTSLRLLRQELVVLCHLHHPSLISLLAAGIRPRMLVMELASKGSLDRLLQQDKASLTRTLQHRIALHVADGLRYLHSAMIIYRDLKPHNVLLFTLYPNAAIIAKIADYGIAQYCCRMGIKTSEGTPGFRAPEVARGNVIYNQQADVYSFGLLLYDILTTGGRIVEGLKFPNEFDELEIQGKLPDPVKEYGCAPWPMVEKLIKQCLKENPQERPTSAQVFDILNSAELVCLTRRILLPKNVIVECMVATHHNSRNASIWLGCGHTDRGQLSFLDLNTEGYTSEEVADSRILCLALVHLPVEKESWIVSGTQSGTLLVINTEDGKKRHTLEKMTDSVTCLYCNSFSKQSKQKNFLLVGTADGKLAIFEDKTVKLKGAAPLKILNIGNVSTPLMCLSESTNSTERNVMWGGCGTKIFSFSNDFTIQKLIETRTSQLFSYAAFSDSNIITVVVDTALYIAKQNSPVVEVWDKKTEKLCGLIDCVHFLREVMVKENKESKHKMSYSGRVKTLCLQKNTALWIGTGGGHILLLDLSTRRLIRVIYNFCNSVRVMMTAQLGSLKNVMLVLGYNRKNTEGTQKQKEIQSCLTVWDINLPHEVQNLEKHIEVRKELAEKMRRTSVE

340 wild-type kinases [2] = biological target: T2, 340 wild-type kinases (Homo sapiens, UniProt P25098)
T2 construct: purchased Reaction Biology Europe
T2 sequence (P25098 1-689): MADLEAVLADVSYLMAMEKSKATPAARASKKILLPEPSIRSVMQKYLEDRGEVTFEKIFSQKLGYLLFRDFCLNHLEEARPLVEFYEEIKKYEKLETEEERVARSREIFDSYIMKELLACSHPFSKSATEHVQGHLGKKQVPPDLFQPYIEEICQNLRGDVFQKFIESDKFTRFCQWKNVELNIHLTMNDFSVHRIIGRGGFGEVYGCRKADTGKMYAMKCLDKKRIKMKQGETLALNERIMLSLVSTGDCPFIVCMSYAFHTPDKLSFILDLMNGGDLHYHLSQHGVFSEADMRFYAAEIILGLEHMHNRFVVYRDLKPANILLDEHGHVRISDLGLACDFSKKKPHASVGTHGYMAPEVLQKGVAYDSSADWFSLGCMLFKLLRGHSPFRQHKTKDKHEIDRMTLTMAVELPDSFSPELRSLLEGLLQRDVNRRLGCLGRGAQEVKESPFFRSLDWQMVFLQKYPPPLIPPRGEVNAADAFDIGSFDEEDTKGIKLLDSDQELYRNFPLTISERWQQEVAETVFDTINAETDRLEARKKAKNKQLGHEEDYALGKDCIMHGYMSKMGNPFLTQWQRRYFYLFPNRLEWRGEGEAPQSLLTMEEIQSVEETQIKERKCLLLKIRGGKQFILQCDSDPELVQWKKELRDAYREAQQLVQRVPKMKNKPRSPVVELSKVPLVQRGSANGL

340 wild-type kinases [3] = biological target: T3, 340 wild-type kinases (Homo sapiens, UniProt P34947)
T3 construct: purchased Reaction Biology Europe
T3 sequence (P34947 whole entry): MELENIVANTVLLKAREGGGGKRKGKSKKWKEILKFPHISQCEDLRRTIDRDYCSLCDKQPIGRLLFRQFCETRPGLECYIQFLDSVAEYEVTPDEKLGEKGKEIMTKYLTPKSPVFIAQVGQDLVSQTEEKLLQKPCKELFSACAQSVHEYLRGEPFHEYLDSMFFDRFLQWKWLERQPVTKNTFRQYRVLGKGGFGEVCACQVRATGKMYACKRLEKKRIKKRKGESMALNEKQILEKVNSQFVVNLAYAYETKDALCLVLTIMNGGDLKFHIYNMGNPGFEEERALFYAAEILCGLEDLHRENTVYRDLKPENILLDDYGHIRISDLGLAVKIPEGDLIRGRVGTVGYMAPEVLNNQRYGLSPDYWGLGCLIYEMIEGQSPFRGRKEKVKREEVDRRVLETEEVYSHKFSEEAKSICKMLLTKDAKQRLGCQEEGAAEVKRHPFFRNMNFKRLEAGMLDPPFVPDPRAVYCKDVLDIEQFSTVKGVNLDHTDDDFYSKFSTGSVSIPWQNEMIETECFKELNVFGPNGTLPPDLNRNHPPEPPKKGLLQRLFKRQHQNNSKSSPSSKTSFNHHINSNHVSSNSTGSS

340 wild-type kinases [4] = biological target: T4, 340 wild-type kinases (Homo sapiens, UniProt Q05655)
T4 construct: purchased Reaction Biology Europe
T4 sequence (Q05655 whole entry): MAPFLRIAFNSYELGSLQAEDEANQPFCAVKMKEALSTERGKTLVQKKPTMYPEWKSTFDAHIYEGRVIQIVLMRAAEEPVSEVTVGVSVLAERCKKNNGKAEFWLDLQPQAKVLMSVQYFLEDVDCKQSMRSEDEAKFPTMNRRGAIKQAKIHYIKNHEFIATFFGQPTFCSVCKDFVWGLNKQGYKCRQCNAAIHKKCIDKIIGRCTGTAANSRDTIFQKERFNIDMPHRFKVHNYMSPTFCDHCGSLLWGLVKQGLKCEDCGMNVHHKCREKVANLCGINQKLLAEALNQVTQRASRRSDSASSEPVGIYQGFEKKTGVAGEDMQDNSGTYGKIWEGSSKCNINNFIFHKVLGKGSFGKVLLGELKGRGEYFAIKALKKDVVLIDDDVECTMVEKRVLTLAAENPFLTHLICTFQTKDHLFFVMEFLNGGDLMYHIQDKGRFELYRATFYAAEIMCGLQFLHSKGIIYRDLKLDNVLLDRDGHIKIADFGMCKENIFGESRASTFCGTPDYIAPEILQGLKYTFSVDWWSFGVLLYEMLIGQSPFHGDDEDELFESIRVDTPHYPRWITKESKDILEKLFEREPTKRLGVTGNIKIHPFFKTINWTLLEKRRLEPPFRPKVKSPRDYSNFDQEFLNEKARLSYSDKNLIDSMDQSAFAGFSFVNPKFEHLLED

340 wild-type kinases [5] = biological target: T5, 340 wild-type kinases (Homo sapiens, UniProt Q32MK0)
T5 construct: purchased Reaction Biology Europe
T5 sequence (Q32MK0 1-819): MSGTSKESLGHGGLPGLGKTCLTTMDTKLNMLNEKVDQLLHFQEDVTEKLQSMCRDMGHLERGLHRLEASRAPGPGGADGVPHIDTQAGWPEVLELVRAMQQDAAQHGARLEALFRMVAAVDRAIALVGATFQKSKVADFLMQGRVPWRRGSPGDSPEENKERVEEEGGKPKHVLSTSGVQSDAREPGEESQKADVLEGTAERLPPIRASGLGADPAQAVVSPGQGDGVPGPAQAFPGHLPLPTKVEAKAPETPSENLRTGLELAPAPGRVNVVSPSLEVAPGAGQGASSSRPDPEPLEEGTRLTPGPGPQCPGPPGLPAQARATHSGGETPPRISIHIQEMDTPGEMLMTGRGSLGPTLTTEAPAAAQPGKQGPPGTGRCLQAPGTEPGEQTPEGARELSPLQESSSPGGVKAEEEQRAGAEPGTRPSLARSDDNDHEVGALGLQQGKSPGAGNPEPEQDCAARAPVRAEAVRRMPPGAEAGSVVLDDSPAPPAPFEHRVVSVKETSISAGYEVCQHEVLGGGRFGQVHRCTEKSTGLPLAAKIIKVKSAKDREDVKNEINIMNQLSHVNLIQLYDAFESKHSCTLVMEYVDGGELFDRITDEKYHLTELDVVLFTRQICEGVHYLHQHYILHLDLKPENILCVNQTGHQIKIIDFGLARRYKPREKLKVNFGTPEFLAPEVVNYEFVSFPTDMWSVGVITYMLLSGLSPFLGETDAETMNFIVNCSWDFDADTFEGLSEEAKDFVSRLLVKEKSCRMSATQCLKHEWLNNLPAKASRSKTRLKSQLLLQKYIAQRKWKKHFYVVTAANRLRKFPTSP

Compound `CNC(=O)c1ccc2c(c1)C(=O)c1ccc(Nc3ccc(F)c(NC(=O)C4CC4)c3)cc1CC2` [Compound 2015] has a remaining activity at 0.2 µM (340 wild-type kinases [1]; 0.2 µM 2015, read-out: LRRK2 residual activity) of 98.2%, a remaining activity at 1 µM (340 wild-type kinases [1]; 1 µM 2015, read-out: LRRK2 residual activity) of 93.8% and a remaining activity at 0.2 µM (340 wild-type kinases [1]; LRRK2, 0.2 µM, read-out: residual activity) of 98.2%. The remaining activity at 1 µM (340 wild-type kinases [1]; LRRK2, 1 µM, read-out: residual activity) was 93.8%, the remaining activity at 0.2 µM (340 wild-type kinases [2]; 0.2 µM 2015, read-out: GRK2 residual activity) was 89.1% and the remaining activity at 0.2 µM (340 wild-type kinases [2]; GRK2, 0.2 µM, read-out: residual activity) was 89.2%. For the same compound, the remaining activity at 1 µM (340 wild-type kinases [2]; GRK2, 1 µM, read-out: residual activity) was 80.8%, the remaining activity at 0.2 µM (340 wild-type kinases [3]; 0.2 µM 2015, read-out: GRK5 residual activity) was 106% and the remaining activity at 1 µM (340 wild-type kinases [3]; 1 µM 2015, read-out: GRK5 residual activity) was 114%. The remaining activity at 0.2 µM (340 wild-type kinases [3]; GRK5, 0.2 µM, read-out: residual activity) was 106%, the remaining activity at 1 µM (340 wild-type kinases [3]; GRK5, 1 µM, read-out: residual activity) was 114% and the remaining activity at 0.2 µM (340 wild-type kinases [4]; 0.2 µM 2015, read-out: PKCdelta residual activity) was 95.6%. The remaining activity at 1 µM (340 wild-type kinases [4]; 1 µM 2015, read-out: PKCdelta residual activity) was 97%, the remaining activity at 0.2 µM (340 wild-type kinases [4]; PKCdelta, 0.2 µM, read-out: residual activity) was 95.6% and the remaining activity at 1 µM (340 wild-type kinases [4]; PKCdelta, 1 µM, read-out: residual activity) was 97%. It also gave a remaining activity at 0.2 µM (340 wild-type kinases [5]; 0.2 µM 2015, read-out: MYLK3 residual activity) of 106%, a remaining activity at 1 µM (340 wild-type kinases [5]; 1 µM 2015, read-out: MYLK3 residual activity) of 93.5% and a remaining activity at 0.2 µM (340 wild-type kinases [5]; MYLK3, 0.2 µM, read-out: residual activity) of 106%. The remaining activity at 1 µM (340 wild-type kinases [5]; MYLK3, 1 µM, read-out: residual activity) was 93.5%.
